Laboratory results published in patent US7579368B2, “Cis-imidazolines” (Hoffman-La Roche Inc., priority 2005, dated 2009).
Structures can show the parent of a compound that is named as a salt.

Each molecule was assayed against interaction between p53 and MDM2 proteins (recombinant GST-tagged MDM2 and p53 peptide) (Homo sapiens, UniProt Q00987) (assay: HTRF assay of inhibition of the p53-MDM2 interaction (GST-MDM2 / biotinylated p53 peptide)). Conditions: 90 nM biotinylated p53 peptide, 160 ng/ml GST-MDM2, 37° C. 1 h.
interaction between p53 and MDM2 proteins (recombinant GST-tagged MDM2 and p53 peptide), sequence (Q00987 whole entry): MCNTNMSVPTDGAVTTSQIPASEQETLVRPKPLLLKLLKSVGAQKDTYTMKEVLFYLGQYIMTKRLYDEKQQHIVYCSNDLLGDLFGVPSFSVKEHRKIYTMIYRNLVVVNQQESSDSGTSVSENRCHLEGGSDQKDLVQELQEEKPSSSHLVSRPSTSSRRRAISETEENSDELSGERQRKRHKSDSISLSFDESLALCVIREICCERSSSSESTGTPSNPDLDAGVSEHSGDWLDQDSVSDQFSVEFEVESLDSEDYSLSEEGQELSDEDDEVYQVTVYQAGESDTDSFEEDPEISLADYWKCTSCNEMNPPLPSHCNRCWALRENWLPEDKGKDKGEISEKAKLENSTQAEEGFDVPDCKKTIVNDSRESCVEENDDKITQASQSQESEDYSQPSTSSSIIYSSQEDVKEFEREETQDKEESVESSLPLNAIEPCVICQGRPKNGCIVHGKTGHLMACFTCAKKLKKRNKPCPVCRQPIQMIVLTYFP
Assay type: binding
Method: The ability of the compounds to inhibit the interaction between p53 and MDM2 proteins was measured by an HTRF (homogeneous time-resolved fluorescence) assay in which recombinant GST-tagged MDM2 binds to a peptide that resembles the MDM2-interacting region of p53 (Lane et al.). Binding of GST-MDM2 protein and p53-peptide (biotinylated on its N-terminal end) is registered by the FRET (fluorescence resonance energy transfer) between Europium (Eu)-labeled anti-GST antibody and streptavidin-conjugated Allophycocyanin (APC).
Test is performed in black flat-bottom 384-well plates (Costar) in a total volume of 40 uL containing: 90 nM biotinylated peptide, 160 ng/ml GST-MDM2, 20 nM streptavidin-APC (PerkinElmerWallac), 2 nM Eu-labeled anti-GST-antibody (PerkinElmerWallac), 0.2% bovine serum albumin (BSA), 1 mM dithiothreitol (DTT) and 20 mM […] (TBS) buffer as follows: Add 10 uL of GST-MDM2 (640 ng/ml working solution) in reaction buffer to each well. Add 10 uL diluted compounds (1:5 dilution in reaction buffer) to each well, mix by shaking. Add 20 uL biotinylated p53 peptide (180 nM working solution) in reaction buffer to each well and mix on shaker. Incubate at 37° C. for 1 h. Add 20 uL streptavidin-APC and Eu-anti-GST antibody mixture (6 nM Eu-anti-GST and 60 nM streptavidin-APC working solution) in TBS buffer with 0.2% BSA, shake at room temperature for 30 minutes and read using a TRF-capable plate reader at 665 and 615 nm (Victor 5, Perkin ElmerWallac). If not specified, the reagents were purchased from Sigma Chemical Co.
CCOc1cc(Cl)c(S(N)(=O)=O)cc1C1=N[C@@H](c2ccc(Cl)cc2)[C@@H](c2ccc(Cl)cc2)N1C(=O)N1CCN(CC(=O)N2CCOCC2)CC1 [Example 34, 5-{(4S,5R)-4,5-Bis-(4-chloro-phenyl)-1-[4-(2-morpholin-4-yl-2-oxo-ethyl)-piperazine-1-carbonyl]-4,5-dihydro-1H-imidazol-2-yl}-2-chloro-4-ethoxy-benzenesulfonamide] gave an IC50 of 9 nM. Molecule CCOc1cc(N(C(=O)N2CCNC(=O)C2)S(C)(=O)=O)ccc1C1=N[C@@H](c2ccc(Cl)cc2)[C@@H](c2ccc(Cl)cc2)N1C(=O)N1CCNC(=O)C1 [Example 275, N-{4-[(4S,5R)-4,5-Bis-(4-chloro-phenyl)-1-(3-oxo-piperazine-1-carbonyl)-4,5-dihydro-1H-imidazol-2-yl]-3-ethoxy-phenyl}-N-(3-oxo-piperazine-1-carbonyl)-methanesulfonamide] has an IC50 of 310 nM. Work on CCOc1cc(Cl)c(S(=O)(=O)N2CCCC2)cc1C1=N[C@@H](c2ccc(Cl)cc2)[C@@H](c2ccc(Cl)cc2)N1C(=O)N1CCN(CCS(C)(=O)=O)CC1 [Example 174, [(4S,5R)-2-[4-Chloro-2-ethoxy-5-(pyrrolidine-1-sulfonyl)-phenyl]-4,5-bis-(4-chloro-phenyl)-4,5-dihydro-imidazol-1-yl]-[4-(2-methanesulfonyl-ethyl)-piperazin-1-yl]-methanone hydrochloride] yielded an IC50 of 5 nM. With CCOc1cc(Cl)c(C#N)cc1C1=N[C@@H](c2ccc(Cl)cc2)[C@@H](c2ccc(Cl)cc2)N1C(=O)N1CCNC(=O)C1 [Example 234, 5-[(4S,5R)-4,5-Bis-(4-chloro-phenyl)-1-(3-oxo-piperazine-1-carbonyl)-4,5-dihydro-1H-imidazol-2-yl]-2-chloro-4-ethoxy-benzonitrile] the IC50 was 150 nM. CCOc1cc(C#N)ccc1C1=N[C@@H](c2ccc(Cl)cc2)[C@@H](c2ccc(Cl)cc2)N1C(=O)N1CCN(CCO)CC1 [Example 63, 4-{(4S,5R)-4,5-Bis-(4-chloro-phenyl)-1-[4-(2-hydroxy-ethyl)-piperazine-1-carbonyl]-4,5-dihydro-1H-imidazol-2-yl}-3-ethoxy-benzonitrile] was tested, and the IC50 was 9 nM. With CCOc1ccc(S(=O)(=O)N(CCOC)CCOC)cc1C1=NC(c2ccc(Cl)cc2)C(c2ccc(Cl)cc2)N1C(=O)N1CCNC(=O)C1 (stereo not shown) [Example 105, 3-[4,5-Bis-(4-chloro-phenyl)-1-(3-oxo-piperazine-1-carbonyl)-4,5-dihydro-1H-imidazol-2-yl]-4-ethoxy-N,N-bis-(2-methoxy-ethyl)-benzenesulfonamide] the IC50 was 57 nM. With CCOc1ccc(S(=O)(=O)NC(C)COC)cc1C1=NC(c2ccc(Cl)cc2)C(c2ccc(Cl)cc2)N1C(=O)N1CCN(CC(=O)NC)CC1 (stereo not shown) [Example 130, 2-(4-{4,5-Bis-(4-chloro-phenyl)-2-[2-ethoxy-5-(2-methoxy-1-methyl-ethylsulfamoyl)-phenyl]-4,5-dihydro-imidazole-1-carbonyl}-piperazin-1-yl)-N-methyl-acetamide] the IC50 was 57 nM. In the case of CCOc1cc(C#CC(C)(C)C)ccc1C1=N[C@@H](c2ccc(Cl)cc2)[C@@H](c2ccc(Cl)cc2)N1C(=O)N1CCN(CC(=O)N2CCOCC2)CC1 [Example 405, 2-(4-{(4S,5R)-4,5-Bis-(4-chloro-phenyl)-2-[4-(3,3-dimethyl-but-1-ynyl)-2-ethoxy-phenyl]-4,5-dihydro-imidazole-1-carbonyl}-piperazin-1-yl)-1-morpholin-4-yl-ethanone hydrochloride], the IC50 is reported as 544 nM. Molecule CCOc1cc(NC(=O)C(C)(C)C)ccc1C1=N[C@@H](c2ccc(Cl)cc2)[C@@H](c2ccc(Cl)cc2)N1C(=O)N1CCNC(=O)C1 [Example 277, N-{4-[(4S,5R)-4,5-Bis-(4-chloro-phenyl)-1-(3-oxo-piperazine-1-carbonyl)-4,5-dihydro-1H-imidazol-2-yl]-3-ethoxy-phenyl}-2,2-dimethyl-propionamide] has an IC50 of 160 nM. With CCOc1cc(Cl)c(S(=O)(=O)N2CCCCC2)cc1C1=N[C@@H](c2ccc(Cl)cc2)[C@@H](c2ccc(Cl)cc2)N1C(=O)N1CCN(CC(=O)N2CCOCC2)CC1 [Example 175, 2-{4-[(4S,5R)-2-[4-Chloro-2-ethoxy-5-(piperidine-1-sulfonyl)-phenyl]-4,5-bis-(4-chloro-phenyl)-4,5-dihydro-imidazole-1-carbonyl]-piperazin-1-yl}-1-morpholin-4-yl-ethanone hydrochloride] the IC50 was 5 nM.
